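Protocol summary: plate cells (96-well), add compound at 5 concentrations, incubate 48 h, interpolate endpoints linearly. The concentration for full growth arrest is given as TGI.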
Key:
Experiment in all cases: DTP human tumour cell line panel, 48 h
M19-MEL melanoma = test system: M19-MEL melanoma
U251 CNS = test system: U251 CNS
HOP-62 NSCLC = test system: HOP-62 NSCLC
TK-10 renal = test system: TK-10 renal
SF-268 CNS = test system: SF-268 CNS
ACHN renal = test system: ACHN renal
NCI-H23 lung = test system: NCI-H23 lung
HOP-18 NSCLC = test system: HOP-18 NSCLC
SNB-75 CNS = test system: SNB-75 CNS
K-562 leukemia = test system: K-562 leukemia
SNB-78 CNS = test system: SNB-78 CNS
NCI/ADR-RES ovarian = test system: NCI/ADR-RES ovarian
MDA-MB-231 breast = test system: MDA-MB-231 breast

In the case of `CC(C)(CN1CCCCC1)C(=O)/C=C/c1ccc(Br)cc1`, the TGI (M19-MEL melanoma) is reported as > 51.8 µM, the TGI (U251 CNS) is reported as 8.11 µM and the TGI (HOP-62 NSCLC) is reported as 9.82 µM. It also gave a TGI (TK-10 renal) of 10.2 µM, a TGI (SF-268 CNS) of 7.08 µM and a TGI (ACHN renal) of 14.5 µM. The TGI (NCI-H23 lung) was 9.11 µM, the TGI (HOP-18 NSCLC) was 6.83 µM and the TGI (SNB-75 CNS) was 14.9 µM. The TGI (K-562 leukemia) was 8.95 µM and the TGI (SNB-78 CNS) was 31.6 µM.

For `COC(=O)[C@@]12OC[C@]34C([C@@H](O)C1O)[C@@]1(C)CC(=O)C(OC(=O)CC(C)C(F)(F)F)=C(C)C1C[C@H]3OC(=O)[C@H](O)[C@H]42` (stereo partly specified), the TGI (M19-MEL melanoma) was 6.25 µM, the TGI (U251 CNS) was > 62.5 µM and the TGI (HOP-62 NSCLC) was > 62.5 µM. For the same compound, the TGI (TK-10 renal) was > 62.5 µM, the TGI (SF-268 CNS) was 56.8 µM and the TGI (ACHN renal) was > 62.5 µM. The TGI (NCI-H23 lung) was 8.69 µM, the TGI (HOP-18 NSCLC) was 29.2 µM and the TGI (SNB-75 CNS) was 31.4 µM. For the same compound, the TGI (K-562 leukemia) was > 62.5 µM and the TGI (SNB-78 CNS) was > 62.5 µM.

For `CN1CCOC(C(NC(=O)c2ccccc2)c2ccccc2)C1=O` (stereo unspecified), the TGI (M19-MEL melanoma) was > 100 µM, the TGI (U251 CNS) was > 100 µM and the TGI (HOP-62 NSCLC) was > 100 µM. For the same compound, the TGI (TK-10 renal) was > 100 µM, the TGI (SF-268 CNS) was > 100 µM and the TGI (ACHN renal) was > 100 µM. For the same compound, the TGI (NCI-H23 lung) was > 100 µM, the TGI (HOP-18 NSCLC) was > 100 µM and the TGI (SNB-75 CNS) was > 100 µM. For the same compound, the TGI (K-562 leukemia) was > 100 µM and the TGI (SNB-78 CNS) was > 100 µM.

In the case of `COC(=O)C(C(=O)C(=O)Nc1c(Cl)cc([N+](=O)[O-])cc1Cl)c1csc(-n2nc(C3=CCCCC3)cc2-c2ccccc2)n1` (stereo unspecified), the TGI (M19-MEL melanoma) is reported as > 100 µM, the TGI (U251 CNS) is reported as > 100 µM and the TGI (HOP-62 NSCLC) is reported as > 100 µM. The TGI (TK-10 renal) was > 100 µM, the TGI (SF-268 CNS) was > 100 µM and the TGI (ACHN renal) was > 100 µM. The TGI (HOP-18 NSCLC) was > 100 µM, the TGI (SNB-75 CNS) was > 100 µM and the TGI (K-562 leukemia) was > 100 µM. For the same compound, the TGI (SNB-78 CNS) was > 100 µM.

For `CCOC(=O)C1S(=O)(=O)OCCOS1(=O)=O`, the TGI (M19-MEL melanoma) was > 100 µM, the TGI (HOP-62 NSCLC) was > 100 µM and the TGI (TK-10 renal) was > 100 µM. The TGI (SF-268 CNS) was > 100 µM, the TGI (NCI-H23 lung) was > 100 µM and the TGI (SNB-75 CNS) was > 100 µM. For the same compound, the TGI (K-562 leukemia) was > 100 µM and the TGI (SNB-78 CNS) was > 100 µM.

`O=C1c2ccccc2N2OC3(N4CCOCC4)CCCC3C12c1ccccc1` (stereo unspecified) was tested, and the TGI (M19-MEL melanoma) was > 100 µM, the TGI (U251 CNS) was > 100 µM and the TGI (HOP-62 NSCLC) was > 100 µM. The TGI (SF-268 CNS) was > 100 µM, the TGI (ACHN renal) was > 100 µM and the TGI (NCI-H23 lung) was > 100 µM. The TGI (HOP-18 NSCLC) was > 100 µM, the TGI (SNB-75 CNS) was > 100 µM and the TGI (K-562 leukemia) was > 100 µM. For the same compound, the TGI (SNB-78 CNS) was > 100 µM.

In the case of `COC(CN(C)C(=S)Nc1cccc2ccccc12)OC`, the TGI (NCI/ADR-RES ovarian) is reported as > 10 µM, the TGI (U251 CNS) is reported as > 10 µM and the TGI (HOP-62 NSCLC) is reported as > 10 µM. For the same compound, the TGI (TK-10 renal) was > 10 µM, the TGI (SF-268 CNS) was > 10 µM and the TGI (ACHN renal) was > 10 µM. The TGI (NCI-H23 lung) was > 10 µM, the TGI (SNB-75 CNS) was > 10 µM and the TGI (MDA-MB-231 breast) was > 10 µM. The TGI (K-562 leukemia) was > 10 µM.

`N#Cc1ccccc1OCCOc1ccccc1C#N` was tested, and the TGI (NCI/ADR-RES ovarian) was > 100 µM, the TGI (U251 CNS) was > 100 µM and the TGI (HOP-62 NSCLC) was > 100 µM. The TGI (TK-10 renal) was > 100 µM, the TGI (SF-268 CNS) was > 100 µM and the TGI (ACHN renal) was > 100 µM. For the same compound, the TGI (NCI-H23 lung) was > 100 µM, the TGI (SNB-75 CNS) was > 100 µM and the TGI (MDA-MB-231 breast) was > 100 µM. For the same compound, the TGI (K-562 leukemia) was > 100 µM.

With `COC(=O)c1cc(S(=O)(=O)NC2=NCC(C)NN2)c(S)cc1Cl` (stereo unspecified) the TGI (NCI/ADR-RES ovarian) was > 100 µM, the TGI (U251 CNS) was > 100 µM and the TGI (HOP-62 NSCLC) was > 100 µM. For the same compound, the TGI (TK-10 renal) was > 100 µM, the TGI (SF-268 CNS) was 60.6 µM and the TGI (ACHN renal) was > 100 µM. For the same compound, the TGI (NCI-H23 lung) was > 100 µM, the TGI (SNB-75 CNS) was 75.3 µM and the TGI (MDA-MB-231 breast) was > 100 µM. The TGI (K-562 leukemia) was > 100 µM.

With `O=c1cc(Nc2cccc(O)c2)[nH]c(=O)[nH]1` the TGI (NCI/ADR-RES ovarian) was > 100 µM, the TGI (U251 CNS) was > 100 µM and the TGI (HOP-62 NSCLC) was > 100 µM. The TGI (TK-10 renal) was > 100 µM, the TGI (SF-268 CNS) was > 100 µM and the TGI (ACHN renal) was > 100 µM. The TGI (NCI-H23 lung) was > 100 µM, the TGI (SNB-75 CNS) was > 100 µM and the TGI (MDA-MB-231 breast) was > 100 µM. The TGI (K-562 leukemia) was > 100 µM.

With `COC(=O)[C@H](Cc1ccccc1)NC(=O)c1ccc(CNC(=O)/C=C/c2csc(-c3ccccc3)n2)cc1` the TGI (NCI/ADR-RES ovarian) was > 91.7 µM, the TGI (U251 CNS) was > 72.1 µM and the TGI (HOP-62 NSCLC) was 52.5 µM. The TGI (TK-10 renal) was 45.4 µM, the TGI (SF-268 CNS) was > 100 µM and the TGI (ACHN renal) was 44 µM. For the same compound, the TGI (NCI-H23 lung) was > 87.4 µM, the TGI (SNB-75 CNS) was 42 µM and the TGI (MDA-MB-231 breast) was 57.7 µM. For the same compound, the TGI (K-562 leukemia) was > 31.9 µM.

For `Cc1nc2c(sc3nc4c(cc32)CCC4)c(=O)o1`, the TGI (NCI/ADR-RES ovarian) was > 100 µM, the TGI (U251 CNS) was > 100 µM and the TGI (HOP-62 NSCLC) was > 100 µM. The TGI (TK-10 renal) was > 100 µM, the TGI (SF-268 CNS) was > 100 µM and the TGI (ACHN renal) was > 100 µM. The TGI (NCI-H23 lung) was > 100 µM, the TGI (SNB-75 CNS) was > 100 µM and the TGI (MDA-MB-231 breast) was > 100 µM. For the same compound, the TGI (K-562 leukemia) was > 100 µM.

In the case of `CC(=O)OC1COC(N2CCc3cc([N+](=O)[O-])ccc32)C(OC(C)=O)C1OC(C)=O` (stereo unspecified), the TGI (M19-MEL melanoma) is reported as > 100 µM, the TGI (U251 CNS) is reported as > 100 µM and the TGI (HOP-62 NSCLC) is reported as > 100 µM. The TGI (TK-10 renal) was > 100 µM, the TGI (SF-268 CNS) was > 100 µM and the TGI (ACHN renal) was > 100 µM. The TGI (NCI-H23 lung) was > 100 µM, the TGI (SNB-75 CNS) was > 100 µM and the TGI (K-562 leukemia) was > 100 µM. The TGI (SNB-78 CNS) was > 100 µM.

`CCN(/C=C1/C(=O)C(c2ccccc2)N(c2ccccc2)C1=O)CC` (stereo unspecified) was tested, and the TGI (NCI/ADR-RES ovarian) was > 10 µM, the TGI (U251 CNS) was > 10 µM and the TGI (HOP-62 NSCLC) was > 10 µM. The TGI (TK-10 renal) was > 10 µM, the TGI (SF-268 CNS) was > 10 µM and the TGI (ACHN renal) was > 10 µM. The TGI (NCI-H23 lung) was > 10 µM, the TGI (SNB-75 CNS) was > 10 µM and the TGI (MDA-MB-231 breast) was > 10 µM. The TGI (K-562 leukemia) was > 10 µM.

For `COc1ccc(/C(Nc2ccccc2)=C(\CCl)c2ccccc2)cc1OC`, the TGI (NCI/ADR-RES ovarian) was > 100 µM, the TGI (U251 CNS) was 64.7 µM and the TGI (HOP-62 NSCLC) was > 100 µM. The TGI (TK-10 renal) was > 100 µM, the TGI (SF-268 CNS) was > 100 µM and the TGI (ACHN renal) was > 100 µM. The TGI (NCI-H23 lung) was > 100 µM, the TGI (SNB-75 CNS) was > 100 µM and the TGI (MDA-MB-231 breast) was > 100 µM. The TGI (K-562 leukemia) was 64.9 µM.

— PubChem BioAssay (NCI)
